Results reported in paper PMC4267622, “Pin1-mediated Sp1 phosphorylation by CDK1 increases Sp1 stability and decreases its DNA-binding activity during mitosis” (Nucleic Acids Research, 2014).

Assays:
mitotic Sp1 = assay: GST-Pin1 pull-down with HeLa lysates; type: binding; settings: mitotic HeLa lysate; for interaction with phospho-Sp1(T739): antibody against phospho-Sp1 (T739)
Description: (§1) The mixture was incubated with shaking for 1 h at 4°C. The beads were washed three times in NETN buffer and added to the interphase or mitotic cell extract. The reaction mixture was incubated on ice for 1 h. The beads were then washed in NETN buffer. Proteins were eluted by sample buffer and separated by SDS- PAGE.

CDK1/cyclin B1 = assay: In vitro CDK1/cyclin B1 kinase assay; type: biochemical; settings: 15 min; for effect on CDK1-mediated Sp1 phosphorylation: substrate GST-Sp1 (619–785), [γ-^32P] ATP, 30°C; for phosphorylation by CDK1 (as substrate): 1 μg Sp1 protein, 50 ng CDK1/cyclin B1, 30°C
Description: For the in vitro phosphorylation analysis, the GST-Sp1(619-785), GST-Sp1(619-785)-T739A, GST-Sp1(619-785)-T739D, GST-Sp1(619-785)-P6, GST-Sp1(619-785)-Z12, GST-Sp1(619-715) or GST-Sp1(619-740) were purified from Escherichia coli BL21 (DE3). These different Sp1 proteins and active CDK1/cyclin B1 (New England Biolabs, Beverly, MA) were used to examine Sp1 phosphorylation in vitro. Each reaction (20 μl) contained 1 μg of purified Sp1, 50 ng of active CDK1/cyclin B1, 2 μCi of [γ-^32P] ATP (GE Healthcare Life Sciences), 1 mM ATP (New England Biolabs) and […] of 10× kinase buffer containing 500 mM HEPES pH 7.4, 10 mM MgCl2, 1 mM EGTA and 1 mM dithiothreitol. The phosphorylation reactions were incubated at 30°C for 15 min. After the incubation, one-half of the reaction was added to 10 μl of 2×electrophoresis sample buffer, which was then heated to 95°C for 5 min. Proteins in the mixtures were immediately separated using SDS-polyacrylamide gel electrophoresis (PAGE).

Pin1 [1] = biological target: Pin1 (UniProt Q13526); assay: isothermal titration calorimetry; settings: reference: Thr739-Sp1 peptide (unphosphorylated); sites T739
[2] = test system: Sp1-binding probe of p21^WAF1/CIP1 promoter; assay: DNA affinity precipitation assay (DAPA); settings: 4°C, 1 h
Description: Cell lysate incubated with 1 μg of binding probes in 500 μl binding of buffer (2 mM MgCl2, 60 mM KCl, 20 mM Tris-HCl pH 7.8, 5% glycerol, 0.5 mM EDTA and 0.02% NP-40). After incubation for 1 h at 4°C, the mixture was incubated with 30 μl of streptavidin-agarose beads (GE Healthcare Life Sciences) for 1 h at 4°C. The mixture was washed three times by binding buffer. The proteins in the beads were eluted by 2X sample buffer and analysed by SDS-PAGE and immunoblotting. The Sp1-binding probe 5′-[…]-3′, localized from −82 to −50 bp within the promoter of p21^WAF1/CIP1, was biotinylated at 5′ termini and then annealed with complementary strands.

HeLa cells = assay: Flow cytometry with PI staining (cell cycle); type: cell-based; settings: nocodazole 16 h
Description: The cells washed by cold PBS and then fixed in 70% alcohol or 4% paraformaldehyde at 4°C for 2 h. After fixation, the cells washed by cold PBS and treated with 0.1% TritonX-100, 10μg/ml RNase and 50 μg/ml propidium iodide for 1 h. The cells were analysed by flow cytometer (Cell Lab Quanta™ SC; Beckman Coulter or FACSCalibur; BD Biosciences).

[3] = biological target: Pin1 (purified, used in ITC) (UniProt Q13526); assay: ITC; Sp1 peptide (900 mM [sic]) titrated into Pin1 (60 mM [sic]) in the cell; 10 mM HEPES pH 7.5, 100 mM NaCl, 1 mM DTT; 25°C; MicroCal iTC200
Pin1 [4] = assay: Pin1 interaction of Sp1 mutants (anti-Pin1 immunoprecipitation / pull-down); type: binding; settings: mitotic HeLa lysates / pull-down
Description: Cell lysates were prepared by using mRIPA buffer (50 mM Tris-HCl, pH 7.8, 150 mM NaCl, 5 mM ethylenediaminetetraacetic acid (EDTA), 0.1% Triton-X100, 0.05% NP-40). The lysates were incubated with anti-Sp1 (1:500), anti-CDK1 (1:200), anti-Pin1 (1:250), anti-HA tag (1:250), or anti-GFP tag (1:200) antibodies at 4°C for 1 h. After 1 h incubation, the mixture was incubated with Protein A or G Sepharose agarose beads at 4°C for 1 h. The beads were collected and washed three times by mRIPA buffer. The beads were added 2X electrophoresis sample buffer and analysed by immunoblotting.
as §1

Pin1 [5] = biological target: Pin1 (UniProt Q13526); assay: co-IP with anti-Pin1, Sp1 blot; settings: reference: GFP-Sp1 wild type; sites T739
JNK1 = assay: In vitro kinase assay with JNK1; type: biochemical; settings: substrate GST-Sp1(619-785)
Pin1 [6] = assay: Co-localization of Sp1 and Pin1 by immunofluorescence in sub-mitotic stages; type: cell-based; settings: HeLa
Description: The cells were fixed with 4% paraformaldehyde (Sigma-Aldrich) in PBS according to a method described previously ([3]). Immunostaining was conducted with primary antibodies such as anti-Sp1, anti-GFP tag (Santa Cruz Biotechnology, Santa Cruz, CA), or anti-Pin1 (Calbiochem, San Diego, CA) antibodies. The cells were then treated with Alexa Fluor 488-conjugated goat anti-mouse or rabbit immunoglobulin G (IgG) and Alexa Fluor 568-conjugated goat anti-mouse or rabbit IgG polyclonal antibodies (Jackson ImmunoResearch Laboratories Inc., West Grove, PA). Finally, the cells were mounted in 90% glycerol containing 4'-6-diamidino-2-phenylindole (DAPI) (Invitrogen), and examined using a confocal laser-scanning microscope (FluoView^TM FV 1000; Olympus, Melville, NY) or immunofluorescence microscope (Personal DV Applied Precision, Issaquah, WA). The images were analysed with softWoRx software (Applied Precision Inc.).

GST-Sp1(619-785) = GST-Sp1(619-785) (UniProt P08047 619-785); assay: DAPA (streptavidin pull-down); DAPA: 1 ug probe in 500 ul 20 mM Tris-HCl pH 7.8, 60 mM KCl, 2 mM MgCl2, 0.5 mM EDTA, 5% glycerol, 0.02% NP-40; 1 h at 4 C, then streptavidin-agarose 1 h at 4 C; settings: protein: recombinant; tags: GST; label: 5' biotin on S1 strand; blunt
GST-Sp1(619-785)-T739D = GST-Sp1(619-785)-T739D (UniProt P08047 619-785, T739D); assay: DAPA (streptavidin pull-down); no significant difference from GST-Sp1(619-785); DAPA: 1 ug probe in 500 ul 20 mM Tris-HCl pH 7.8, 60 mM KCl, 2 mM MgCl2, 0.5 mM EDTA, 5% glycerol, 0.02% NP-40; 1 h at 4 C, then streptavidin-agarose 1 h at 4 C; settings: protein: recombinant; tags: GST; label: 5' biotin on S1 strand; blunt

## GST-WW: recognition motif (WW domain) of Pin1
Mitotic Sp1
  interaction with phospho-Sp1(T739): interacted with phospho-Sp1(T739)
CDK1/cyclin B1
  effect on CDK1-mediated Sp1 phosphorylation: but not Pin1-W34A and Pin1-WW, increased the signal

## Sp1 735-745 (from UniProt P08047) Thr739(p)-Sp1 peptide
Pin1 [1]
  other: Ka: 7.4 M⁻¹

## GST-Sp1 (619–740): truncated Sp1, C-terminus (741–785) ablated
CDK1/cyclin B1
  phosphorylation by CDK1 (as substrate): an increased phosphorylation signal was obtained

## Sp1-4A: Sp1 mutant S720A, T723A, T737A and T739A
[2]; mitotic extract of HeLa cells, three independent experiments
  DNA-binding activity to the p21^CIP/WAP promoter: increased its DNA-binding activity to the p21^CIP/WAP promoter
HeLa cells
  cells entered mitosis: 62%

## GST-Sp1 (619–785): truncated Sp1, wild-type C-terminal region
CDK1/cyclin B1
  phosphorylation by CDK1 (as substrate): phosphorylated by CDK1, albeit to a lesser extent

## Pin1-W34A: Pin1 mutated in the recognition domain
Mitotic Sp1
  interaction with mitotic Sp1: but not Pin1-W34A, interacted with mitotic Sp1
CDK1/cyclin B1
  effect on CDK1-mediated Sp1 phosphorylation: but not Pin1-W34A and Pin1-WW, increased the signal

## GST-Sp1 (619–785)-T739A: T739A mutant of GST-Sp1 (619–785)
CDK1/cyclin B1
  phosphorylation by CDK1 (as substrate): No signal was detected

## Thr739(p)-Sp1 peptide (from UniProt P08047 735-745)
[3]
  Ka: 7400 M⁻¹
  Kd: 50 µM
  dH: -6.8 kcal/mol
  stoichiometry N: 0.93

## Sp1-T739A: phosphorylation site mutated Sp1
Pin1 [4]
  interaction with Pin1: decreased interaction with Pin1

## GST-Sp1 (619–785)-T739D: mimic phosphorylation form of GST-Sp1 (619–785)
[2]; purified GST-Sp1 proteins, four independent experiments
  DNA-binding signal: No significant difference in the DNA-binding signal

## Sp1 (from UniProt P08047) GFP-Sp1 T739A
Pin1 [5]
  binding against the reference: weaker

## Pin1: recombinant wild-type Pin1, peptidyl-prolyl isomerase
Mitotic Sp1
  interaction with mitotic Sp1: interacted with mitotic Sp1
  interaction with phospho-Sp1(T739): interacted with phospho-Sp1(T739)
CDK1/cyclin B1
  effect on CDK1-mediated Sp1 phosphorylation: increased the signal of CDK1-mediated Sp1 phosphorylation in a dose dependent manner
JNK1
  effect on JNK1 phosphorylation of Sp1: this phosphorylation remained unaffected

## GST-Sp1 (619–715): truncated Sp1, amino acids 619–715
CDK1/cyclin B1
  phosphorylation by CDK1 (as substrate): No signal was detected

## Sp1: transcription factor Sp1; endogenous or GFP-Sp1-WT expressed in HeLa cells
Pin1 [6]; anaphase (within 20–60 min of nocodazole release)
  Sp1 interaction/co-localization with Pin1: 93%
Pin1 [6]; metaphase (within 20–60 min of nocodazole release)
  Sp1 interaction/co-localization with Pin1: 91.4%
Pin1 [6]; prophase (within 20 min of nocodazole release)
  Sp1 interaction/co-localization with Pin1: 81.3%

## Sp1-T739D: mimic phosphorylated Sp1
Pin1 [4]
  interaction with Pin1: increased interaction with GST-Pin1

B1: p21WAF1/CIP1 promoter Sp1 probe (-82 to -50) (dsDNA)
DNA 1: CCCGCCTCCTTGAGGCGGGCCCGGGCGGGGCGG
DNA 2: CCGCCCCGCCCGGGCCCGCCTCAAGGAGGCGGG
GST-Sp1(619-785)
  binding result: binds
GST-Sp1(619-785)-T739D
  binding result: binds
